Results as given in ChEMBL document CHEMBL3994603, “Antioxidant Flavonols and Phenolic Compounds from Atraphaxis frutescens and Their Inhibitory Activities against Insect Phenoloxidase and Mushroom Tyrosinase” (J Nat Prod, 2016).

target: Mushroom tyrosinase (Agaricus bisporus, UniProt O42713+Q00024+C7FF04+C7FF05)
Description: Inhibition of mushroom tyrosinase using L-DOPA as substrate preincubated for 5 mins followed by substrate addition measured for 10 mins by spectrophotometric method

Q: Which IC50 does the source give for COc1cc(O)c2c(=O)c(O[C@@H]3O[C@@H](C)[C@H](O)[C@@H](O)[C@H]3O)c(-c3cc(O)c(O)c(O)c3)oc2c1OC(C)=O here?
A: 4.7 mM

Q: Which IC50 does the source give for COc1cc(O)c2c(=O)c(O[C@@H]3O[C@@H](C)[C@H](O)[C@@H](O)[C@H]3O)c(-c3cc(O)c(O)c(O)c3)oc2c1 here?
A: 1.1 mM

Q: With Oc1cc(O)c2c(c1)O[C@H](c1cc(O)c(O)c(O)c1)[C@H](O)C2 [EPIGALLOCATECHIN] as the compound, how does the IC50 read?
A: 0.7 mM

Q: With COc1cc(O)c2c(=O)c(O)c(-c3cc(O)c(O)c(O)c3)oc2c1OC(C)=O as the compound, how does the IC50 read?
A: > 5 mM

Q: Which IC50 does the source give for COc1cc(O)c2c(=O)c(O[C@@H]3O[C@@H](C)[C@H](O)[C@@H](O)[C@H]3O)c(-c3ccc(O)c(O)c3)oc2c1O[C@@H]1O[C@H](CO)[C@@H](O)[C@H](O)[C@H]1O here?
A: 4 mM

Q: Which IC50 does the source give for COc1cc(/C=C/C(=O)NCCc2ccc(O)cc2)ccc1O [N-TRANS-FERULOYL TYRAMINE] here?
A: > 5 mM

Q: For O=C(/C=C/c1ccc(O)cc1)NCCc1ccc(O)c(O)c1, which IC50 is on record?
A: 4.3 mM

Q: For COc1cc(O)c2c(=O)c(O[C@@H]3O[C@@H](C)[C@H](O)[C@@H](O)[C@H]3O)c(-c3cc(O)c(O)c(O)c3)oc2c1O, which IC50 is on record?
A: 1.2 mM

Q: With COc1cc(O)c2c(=O)c(O[C@@H]3O[C@@H](C)[C@H](O)[C@@H](O)[C@H]3O)c(-c3ccc(O)c(O)c3)oc2c1OC(C)=O as the compound, how does the IC50 read?
A: > 5 mM

Q: Which IC50 does the source give for COc1cc(O)c2c(=O)c(O)c(-c3ccc(O)c(O)c3)oc2c1OC(C)=O here?
A: > 5 mM

Q: Oc1cc(O)c2c(c1)O[C@H](c1cc(O)c(O)c(O)c1)[C@@H](O)C2 [GALLOCATECHIN] was tested. Which IC50 did it give?
A: 0.16 mM

Q: Which IC50 does the source give for COc1cc(CO[C@@H]2O[C@H](CO)[C@@H](O)[C@H](O)[C@H]2O)cc(OC)c1OC here?
A: > 5 mM

Q: COc1cc(O)c2c(=O)c(O)c(-c3cc(O)c(O)c(O)c3)oc2c1O was tested. Which IC50 did it give?
A: > 5 mM

Q: Which IC50 does the source give for Cc1c(C)c2c(c(C)c1O)CCC(C)(C(=O)O)O2 (configuration not stated) [TROLOX] here?
A: 0.7 mM

Q: How did the IC50 turn out when COc1cc(O)c2c(=O)c(O[C@@H]3O[C@@H](C)[C@H](O)[C@@H](O)[C@H]3O)c(-c3cc(O)c(O)c(O)c3)oc2c1O[C@@H]1O[C@H](CO)[C@@H](O)[C@H](O)[C@H]1O was run?
A: 0.9 mM

Q: For COc1cc(O)c2c(=O)c(O[C@@H]3O[C@@H](C)[C@H](O)[C@@H](O)[C@H]3O)c(-c3ccc(O)c(O)c3)oc2c1O, which IC50 is on record?
A: 2.2 mM

Q: For COc1cc(/C=C/C(=O)NCCc2ccc(O)c(O)c2)ccc1O [N-TRANS-FERULOYLDOPAMINE], which IC50 is on record?
A: > 5 mM

Q: Which IC50 does the source give for O=C(/C=C/c1ccc(O)cc1)NCCc1ccc(O)cc1 [N-P-COUMAROYL TYRAMINE] here?
A: > 5 mM

Q: COc1cc(O)c2c(=O)c(O)c(-c3ccc(O)c(O)c3)oc2c1O was tested. Which IC50 did it give?
A: > 5 mM

Q: How did the IC50 turn out when Oc1cc(O)c2c(c1)O[C@H](c1ccc(O)c(O)c1)[C@H](O)C2 [(-)-EPICATECHIN] was run?
A: > 5 mM

Q: How did the IC50 turn out when C[C@@H]1O[C@@H](Oc2c(-c3cc(O)c(O)c(O)c3)oc3cc(O)cc(O)c3c2=O)[C@H](O)[C@H](O)[C@H]1O was run?
A: 2 mM

Q: Which IC50 does the source give for COc1cc(CO[C@@H]2O[C@H](CO[C@@H]3O[C@@H](C)[C@H](O)[C@@H](O)[C@H]3O)[C@@H](O)[C@H](O)[C@H]2O)cc(OC)c1OC here?
A: > 5 mM
